The text below walks through data of PubChem BioAssay AID256 (DTP/NCI, 2004).

The test system of this assay is CD2F1 mice, L1210 leukemia ip, survival T/C. As to the kind of experiment: NCI In Vivo Anticancer Drug Screen. Data for tumor model L1210 Leukemia (intraperitoneal) in CD2F1 (CDF1) mice. The note with it: endpoint: mean survival time, higher = longer survival. An outline of the steps: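 Vehicle-treated tumor-bearing mice served as controls (C) for compound-treated mice (T). Reported figure is T divided by C.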

[1] abbreviates: dose: 100.0 mg/kg/injection, schedule: Q01DX001 (ip), vehicle: saline.
The mark [2] stands for this setting: dose: 200.0 mg/kg/injection, schedule: Q01DX001 (ip), vehicle: saline.
[3] abbreviates: dose: 400.0 mg/kg/injection, schedule: Q01DX001 (ip), vehicle: saline.
[4] abbreviates: dose: 100.0 mg/kg/injection, schedule: Q04DX003 (ip), vehicle: saline with Tween-80.
Where [5] appears, read: dose: 200.0 mg/kg/injection, schedule: Q04DX003 (ip), vehicle: saline with Tween-80.
The mark [6] stands for this setting: dose: 400.0 mg/kg/injection, schedule: Q04DX003 (ip), vehicle: saline with Tween-80.
Setting [7] is: dose: 100.0 mg/kg/injection, schedule: Q01DX001 (ip), vehicle: saline with Tween-80.
The mark [8] stands for this setting: dose: 200.0 mg/kg/injection, schedule: Q01DX001 (ip), vehicle: saline with Tween-80.
The mark [9] stands for this setting: dose: 400.0 mg/kg/injection, schedule: Q01DX001 (ip), vehicle: saline with Tween-80.

Inconclusive results and toxic doses are left out.

For the compound `COc1c2occc2c(OC)c2c(=O)cc(/C=C/c3ccccn3)oc12`, the T/C is 98 % of control under setting [1], 101 % of control under setting [2] and 98 % of control under setting [3].

Take `COC(=O)C(=O)Cc1cc(OC)cc(=O)o1`: the T/C under setting [4] was 100 % of control, the T/C under setting [5] is 101 % of control and the T/C under setting [6] is 95 % of control.

With `C=CCOc1ccc(C=O)cc1`, the T/C by setting is: under setting [1], 102 % of control; under setting [2], 102 % of control; under setting [3], 97 % of control.

Regarding `COC1OC2COC(c3ccccc3)OC2C2NC(N)(N[N+](=O)[O-])C12O` (stereo not given), the T/C runs as follows: under setting [7], 91 % of control; under setting [8], 88 % of control; under setting [9], 94 % of control.

For the compound `N=C(N)SCc1ccccc1Cl`, the T/C is, setting by setting: (dose: 1.56 mg/kg/injection, schedule: Q01DX009 (ip), vehicle: saline) 101 % of control; (dose: 3.13 mg/kg/injection, schedule: Q01DX009 (ip), vehicle: saline) 101 % of control; (dose: 6.25 mg/kg/injection, schedule: Q01DX009 (ip), vehicle: saline) 101 % of control.

In the case of `Cc1ccc(-n2c(O)c(N=Nc3ccccc3)c(=O)n(-c3ccc(C)cc3)c2=S)cc1`, the T/C is 95 % of control under setting [7], 100 % of control under setting [8] and 97 % of control under setting [9].

Turning to `c1nc(SSc2ncnc3nc[nH]c23)c2[nH]cnc2n1`, the T/C runs as follows: (dose: 12.5 mg/kg/injection, schedule: Q01DX009 (ip), vehicle: saline with Tween-80) 186 % of control; (dose: 25.0 mg/kg/injection, schedule: Q01DX009 (ip), vehicle: saline with Tween-80) 151 % of control; (dose: 30.0 mg/kg/injection, schedule: Q01DX001 (ip), vehicle: saline with Tween-80) 150 % of control; (dose: 66.0 mg/kg/injection, schedule: Q01DX001 (ip), vehicle: saline with Tween-80) 157 % of control; under setting [7], 155 % of control; (dose: 150.0 mg/kg/injection, schedule: Q01DX001 (ip), vehicle: saline with Tween-80) 162 % of control.

On to `CCOc1nnc(-c2ccccc2)o1`, for which the T/C by setting is: (dose: 12.5 mg/kg/injection, schedule: Q01DX009 (ip), vehicle: other) 92 % of control; (dose: 25.0 mg/kg/injection, schedule: Q01DX009 (ip), vehicle: other) 96 % of control; (dose: 50.0 mg/kg/injection, schedule: Q01DX009 (ip), vehicle: other) 97 % of control; (dose: 100.0 mg/kg/injection, schedule: Q01DX009 (ip), vehicle: other) 100 % of control; (dose: 200.0 mg/kg/injection, schedule: Q01DX009 (ip), vehicle: other) 97 % of control.

`CNC(=O)NC1C(O)C(OC)OC2COC(c3ccccc3)OC21` (stereo not given): the T/C reads like this: under setting [4], 97 % of control; under setting [5], 97 % of control; under setting [6], 95 % of control.

For `CCO/C=C1\SC(=S)N(c2ccccc2OC)C1=O`, the T/C under setting [4] is 107 % of control, the T/C under setting [5] is 102 % of control and the T/C under setting [6] is 107 % of control.
